Source: publication PMC11059152, “Discovery of an Aldo-Keto reductase 1C3 (AKR1C3) degrader” (Communications Chemistry, 2024)
Where a chain is given by its changes, count along the chain named.

Experiments:
Assay type in all cases: biochemical
AKR1C2 = biological target: T1, AKR1C2 (Homo sapiens, UniProt P52895); assay: oxidation by purified enzyme, absorbance at […] nm; Km; conditions: cited from earlier work
T1 construct: homogeneous recombinant enzyme
T1 sequence (P52895 1-323): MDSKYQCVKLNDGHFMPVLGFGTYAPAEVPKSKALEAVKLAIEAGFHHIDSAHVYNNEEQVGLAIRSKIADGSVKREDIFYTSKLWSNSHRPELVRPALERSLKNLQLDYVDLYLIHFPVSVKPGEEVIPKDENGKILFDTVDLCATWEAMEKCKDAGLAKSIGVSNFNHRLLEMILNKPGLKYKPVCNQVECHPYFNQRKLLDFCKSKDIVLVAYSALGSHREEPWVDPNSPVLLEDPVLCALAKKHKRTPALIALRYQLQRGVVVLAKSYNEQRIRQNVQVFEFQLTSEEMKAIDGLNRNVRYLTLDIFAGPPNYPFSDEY

AKR1C1 = biological target: T2, AKR1C1 (Homo sapiens, UniProt Q04828); assay: specific activity of purified enzyme, absorbance at […] nm
T2 construct: homogeneous recombinant enzyme
T2 sequence (Q04828 1-323): T1 sequence (P52895 1-323) with V38T, H47R, V54L, S87C, M151V, H170R, L172Q

AKR1C3 = biological target: T3, AKR1C3 (Homo sapiens, UniProt P42330); assay: inhibition of NADP+-dependent S-tetralol oxidation by recombinant enzyme
T3 construct: homogeneous recombinant enzyme
T3 sequence (P42330 1-323): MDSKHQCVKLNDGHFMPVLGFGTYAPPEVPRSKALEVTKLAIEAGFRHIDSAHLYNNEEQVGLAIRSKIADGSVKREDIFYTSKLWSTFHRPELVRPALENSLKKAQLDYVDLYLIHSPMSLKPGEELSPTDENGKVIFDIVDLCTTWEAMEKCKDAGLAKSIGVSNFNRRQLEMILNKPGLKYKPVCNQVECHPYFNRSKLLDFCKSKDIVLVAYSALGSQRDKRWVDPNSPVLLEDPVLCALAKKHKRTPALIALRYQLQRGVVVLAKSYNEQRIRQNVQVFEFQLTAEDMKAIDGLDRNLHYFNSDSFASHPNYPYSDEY

specific activity of purified enzyme, absorbance at 340 nm (AKR1C1) [µmol/min/mg] | IC50 (AKR1C3) [nM] | Structure (SMILES) | Km (AKR1C2) [µM]
1.4 |  | O[C@H]1CCCc2ccccc21 [S-tetralol, (S)-(+)-1,2,3,4-tetrahydro-1-naphthol] | 15
 | 77 ± 2 | O=C(O)/C=C/c1cc(C(=O)NCc2ccc(OCc3cn(CCOCCOCC(=O)Nc4cccc5c4CN(C4CCC(=O)NC4=O)C5=O)nn3)cc2)cc(-c2ccccc2)c1 (stereo not shown) [compound 5, (E)-3-(5-((4-((1-(2-(2-(2-((2-(2,6-dioxopiperidin-3-yl)-1-oxoisoindolin-4-yl)amino)-2-oxoethoxy)ethoxy)ethyl)-1H-1,2,3-triazol-4-yl)methoxy)benzyl)carbamoyl)-[1,1’-biphenyl]-3-yl)acrylic acid] | 
 | 62 ± 1 | C#CCOc1ccc(CNC(=O)c2cc(/C=C/C(=O)O)cc(-c3ccccc3)c2)cc1 [compound 4, warhead 4] | 
